Test results published in PubChem BioAssay AID1996.
Converted amounts (≈) assume the structure as drawn.

Conditions: buffer; pH 7.4; 200.0 µM

Point of comparison: `O=S(=O)(CC(c1ccccc1)N1CCCCC1)c1ccc(Cl)cc1` (centres undefined), solubility kinetic 4.2 µg/mL (≈ 11.5 µM). Against it:
- CC(OC(=O)C1CCCC1)C(=O)Nc1ncc(Cl)cc1Cl (centres undefined) — 12-fold higher, 49.1 µg/mL (≈ 148 µM)
- COc1ccc(S(=O)(=O)NCCc2c[nH]c3ccc(C)cc23)cc1 — 4.1-fold higher, 17.3 µg/mL (≈ 50.2 µM)
- O=C(c1cc(-c2ccc(Cl)cc2Cl)on1)N1CCCC1 — 2.3-fold lower, 1.8 µg/mL (≈ 5.78 µM)
- CCOC(=O)c1[nH]cnc1C(=O)Nc1ccccc1C — 2.5-fold higher, 10.3 µg/mL (≈ 37.7 µM)
- COc1ccccc1OCC(=O)Nc1ccc2c(c1)OCCO2 — 9.3-fold higher, 39.1 µg/mL (≈ 124 µM)
- Cc1cc(F)ccc1NC(=O)C1CCCO1 (centres undefined) — 7.9-fold higher, 33.3 µg/mL (≈ 149 µM)
- Cc1ccc(S(=O)(=O)Nc2ccc3c(c2)nc(C)n3C)cc1 — 5.2-fold lower, 0.8 µg/mL (≈ 2.54 µM)
- Cc1ccc(S(=O)(=O)CCSc2ccc(C(F)(F)F)cn2)cc1 — lower, < 0.8 µg/mL
- O=C1c2ccccc2C2(c3ccc(F)cc3)NCCN12 (centres undefined) — higher, > 40.2 µg/mL
- CN(Cc1ccc(F)cc1)C(=O)COc1ccc2ccccc2c1 — lower, < 0.7 µg/mL
- CN(C)C(=O)c1cc(C(=O)c2ccccc2Br)c[nH]1 — 11-fold higher, 44.4 µg/mL (≈ 138 µM)
- COC(=O)c1ccc2nc(-c3ccc4c(c3)OCO4)cn2c1 — 3.5-fold lower, 1.2 µg/mL (≈ 4.05 µM)
- O=C(NCc1cccnc1)Nc1cccc(Cl)c1Cl — 6.6-fold higher, 27.7 µg/mL (≈ 93.5 µM)
- O=[N+]([O-])c1cccc(CN2CC=C(c3ccc(F)cc3)CC2)c1 — within 1.5-fold, 3.3 µg/mL (≈ 10.6 µM)
- N#Cc1c2c(c(NCCOCCO)n3c1nc1ccccc13)CCCC2 — 6.4-fold higher, 27 µg/mL (≈ 77 µM)
- O=C(O)c1ccc(NC(=O)c2ccc(COc3ccccc3)o2)cc1 — higher, > 50.6 µg/mL
- Cc1cc(N)c2ccccc2n1 — higher, > 23.7 µg/mL
- Cn1c(N)c(C(=O)COC(=O)c2cccc(S(=O)(=O)NCc3ccccc3)c2)c(=O)n(C)c1=O — 4.2-fold higher, 17.6 µg/mL (≈ 36.2 µM)
- COCCCNC(=O)C(=O)Nc1cc2c3c(c1)CCN3C(=O)CC2 — 12-fold higher, 49.4 µg/mL (≈ 149 µM)
- CCOC(=O)C1CCN(C(=O)Nc2cccc(OC)c2)CC1 — higher, > 46 µg/mL
- O=C(COC(=O)CC1CCCC1)Nc1cccc(F)c1 — higher, > 41.9 µg/mL
- CC1(C)CC(NC(=O)c2cc(S(=O)(=O)N3CCOCC3)ccc2Cl)CC(C)(C)N1.Cl — higher, > 72.1 µg/mL
- CC(C)CC(N(C)C)C1(c2ccc(Cl)cc2)CCC1.Cl (centres undefined) — lower, < 0.7 µg/mL
- O=C(NCc1ccco1)C1CC(=O)N(c2cccc(Cl)c2)C1 (centres undefined) — 9.5-fold higher, 39.7 µg/mL (≈ 125 µM)
- CCC(C)(C)NC(=O)/C=C/c1ccccc1[N+](=O)[O-] — 7.5-fold higher, 31.4 µg/mL (≈ 120 µM)
- Cn1cccc1C(=O)OCC(=O)NC1CCS(=O)(=O)C1 (centres undefined) — higher, > 45 µg/mL
- CC1(C)Cc2cccc(OCC(=O)NCc3ccccc3F)c2O1 — higher, > 49.4 µg/mL
- Cc1noc(C)c1C(=O)OCC(=O)NCCc1ccc(S(N)(=O)=O)cc1 — higher, > 57.2 µg/mL
- O=C(CN1C(=O)NC2(CCCCCC2)C1=O)NCc1ccccc1Cl — higher, > 54.6 µg/mL
- Cc1cc(C)c2cc(C(=O)N3CCc4ccccc4C3)[nH]c2c1 — 8.4-fold lower, 0.5 µg/mL (≈ 1.64 µM)
- Nc1ccc2nc(SCC(=O)N3CCOCC3)sc2c1 — higher, > 46.4 µg/mL
- O=C(NC1CCN(C(=O)Nc2ccc(F)cc2)CC1)c1cccc(F)c1 — within 1.5-fold, 6 µg/mL (≈ 16.7 µM)
- CCOc1ccc([N+](=O)[O-])cc1CNC1CCCCCCC1.Cl — higher, > 51.4 µg/mL
- O=C(Nc1ncccn1)c1ccc(Cl)c([N+](=O)[O-])c1 — higher, > 41.8 µg/mL
- CCCCCC(=O)NC(=S)NC1C2CC3CC(C2)CC1C3 (centres undefined) — 6.7-fold higher, 28.3 µg/mL (≈ 91.7 µM)
- C=CCn1c(O)c(C(C)=Nc2ccc(C(=O)O)cc2)c(=O)[nH]c1=O — higher, > 49.4 µg/mL
- Cc1csc(C)[n+]1CC(=O)c1ccccc1.[Br-] — higher, > 46.8 µg/mL
- Cc1ccc(C(C)NC(=O)c2cccs2)cc1C (centres undefined) — within 1.5-fold, 5.7 µg/mL (≈ 22 µM)
- O=C(COc1ccccc1Cl)N1CCc2ccccc2C1 — 9.2-fold higher, 38.7 µg/mL (≈ 128 µM)
- CCN1C(=O)c2ccc(C(=O)Nc3ccc4c(c3)OCO4)cc2C1=O — 8.4-fold lower, 0.5 µg/mL (≈ 1.48 µM)
- CC1(C)C(=O)OC(c2ccc([N+](=O)[O-])cc2)C(C)(C)C1=O (centres undefined) — 1.7-fold lower, 2.5 µg/mL (≈ 8.58 µM)
- CC(C)(C)C(=O)N(Cc1ccc(Cl)cc1)Cc1cccnc1 — 10-fold higher, 42.6 µg/mL (≈ 134 µM)
- CCOC(=O)c1ccc(NC(=O)NCc2cccnc2)cc1 — higher, > 44.9 µg/mL
- CCCCN(C)C(=O)c1cc2cc([N+](=O)[O-])cc(OC)c2oc1=O — higher, > 50.1 µg/mL
- COc1ccc(CCNCc2ccsc2)cc1OC — 8.8-fold higher, 37.1 µg/mL (≈ 134 µM)
- COc1ccc(OCC(O)CN(C)C(=O)C(C)Oc2ccccc2)cc1 (centres undefined) — higher, > 53.9 µg/mL
- CN1CCN(C(=O)NCC23CC4CC(CC(C4)C2)C3)CC1 — higher, > 43.7 µg/mL
- CCCNC(=O)N1c2ccccc2Sc2ccccc21 — 8-fold higher, 33.6 µg/mL (≈ 118 µM)
- O=C(Nc1ccc(S(=O)(=O)NC2=NCCCCC2)cc1)c1cccc(S(=O)(=O)N2CCOCC2)c1 — 12-fold higher, 51.5 µg/mL (≈ 98.9 µM)
- CC(=O)Nc1ccc(C(=O)OCC(=O)N(c2ccccc2)C2CCCCC2)cc1 — within 1.5-fold, 3.8 µg/mL (≈ 9.63 µM)
- O=C(Nc1ccc(F)cc1)c1cc2c(s1)CCCC2 — lower, < 0.6 µg/mL
- O=C(NCc1cccnc1)C(=O)Nc1ccc([N+](=O)[O-])cc1 — within 1.5-fold, 3.7 µg/mL (≈ 12.3 µM)
- O=C(COC(=O)c1ccccc1Br)Nc1ccc(F)cc1 — 6.8-fold higher, 28.7 µg/mL (≈ 81.5 µM)
- COc1ccc2c(C(=O)CN3CCSCC3)c[nH]c2c1 — 8.8-fold higher, 36.8 µg/mL (≈ 127 µM)
- Cc1ccnc(NS(=O)(=O)c2ccc3ccccc3c2)n1 — 6.7-fold higher, 28.1 µg/mL (≈ 93.9 µM)
- CC(=O)Nc1ccc(NC(=O)C(C)OC(=O)[C@@H]2CCCN2C(=O)c2cccs2)cc1 (some centres undefined) — higher, > 64.4 µg/mL
- COc1ccc(CN(C)C(=O)c2[nH]c(C)c(C(C)=O)c2C)cc1F — higher, > 49.9 µg/mL
- COc1ccc(-c2csc(NC3CCCCC3)n2)c(OC)c1 — 2.5-fold higher, 10.3 µg/mL (≈ 32.3 µM)
